Legend:
Dirofilaria immitis = assay: Heartworm screen Dirofilaria immitis (stage DiMF/DiL4 not specified in the tables); format: cell-based; conditions: read-out: D. immitis Activity class
[1] = system: Onchocerca gutturosa adult male worms; assay: Onchocerca gutturosa in vitro screening model: adult worm motility score and MTT/formazan viability; format: cell-based; conditions: read-out: O. gutt Activity class

Compound	IC50 (Dirofilaria immitis) [nM]	IC50 [1] [nM]
C[C@@H](C1CC1)n1ccnc1S(=O)(=O)Nc1cccc2cccnc12 [Compound 185, (S)-1-(1-cyclopropyl-ethyl)-N-(quinolin-8-yl)-1H-imidazole-2-sulfonamide]	200 to 500	< 200
CCn1ccc(S(=O)(=O)Nc2cccc3cccnc23)n1 [Compound 193, 1-ethyl-N-(quinolin-8-yl)-1H-pyrazole-3-sulfonamide]	500 to 5000	200 to 500
Cc1cccnc1S(=O)(=O)Nc1cccc2c(C)ccnc12 [Compound 15, 3-methyl-N-(4-methyl-quinolin-8-yl)pyridine-2-sulfonamide]	500 to 5000	< 200
O=S(=O)(Nc1cccc2cccnc12)c1ccc(-c2ccccc2)nc1 [Compound 189, 6-phenyl-N-(quinolin-8-yl)pyridine-3-sulfonamide]	500 to 5000	200 to 500
CCn1ccnc1S(=O)(=O)Nc1cc(C)cc2cccnc12 [Compound 103, 1-ethyl-N-(6-methylquin-olin-8-yl)-1H-imidazole-2-sulfonamide]	200 to 500	500 to 5000
CC(C)Oc1ccc(S(=O)(=O)Nc2cccc3cccnc23)nc1 [Compound 242, 5-isopropoxy-N-(quinolin-8-yl)pyridine-2-sulfonamide]	200 to 500	< 200
Cc1cc(C)c(S(=O)(=O)Nc2cccc3cccnc23)c(Cl)n1 [Compound 177, 2-chloro-4,6-dimethyl-N-(quinolin-8-yl)pyridine-3-sulfonamide]	500 to 5000	500 to 5000
Cc1nccnc1S(=O)(=O)Nc1ccc(N2CCOCC2)c2cccnc12 [Compound 75, 3-methyl-N-(5-morpho-linoquinolin-8-yl)pyrazine-2-sulfonamide]	500 to 5000	< 200
Cc1ccc(S(=O)(=O)Nc2cccc3cccnc23)o1 [Compound 276, 5-methyl-N-(quinolin-8-yl)furan-2-sulfonamide]	200 to 500	200 to 500
Cc1cccnc1S(=O)(=O)Nc1cccc2cc(C3CC3)cnc12 [Compound 29, N-(3-cyclo-propylquin-olin-8-yl)-3-methylpyr-idine-2-sulfonamide]	500 to 5000	500 to 5000
CC(C)n1nccc1S(=O)(=O)Nc1c(Cl)ccc2cccnc12 [Compound 77, N-(7-chloro-quinolin-8-yl)-1-iso-propyl-1H-pyrazole-5-sulfonamide]	500 to 5000	200 to 500
Cc1ccc(S(=O)(=O)Nc2cc(F)cc3cccnc23)nc1 [Compound 88, N-(6-fluoro-quinolin-8-yl)-5-methyl-pyridine-2-sulfonamide]	500 to 5000	500 to 5000
O=S(=O)(Nc1cccc2cccnc12)c1ccc(-c2ccc(F)cc2)nc1 [Compound 182, 6-(4-fluorophenyl)-N-(quinolin-8-yl)pyridine-3-sulfonamide]	500 to 5000	< 200
Cc1cccnc1S(=O)(=O)Nc1c(Cl)ccc2cccnc12 [Compound 100, N-(7-chloro-quinolin-8-yl)-3-methylpyr-idine-2-sulfon-amide]	500 to 5000	< 200
Cc1cccnc1S(=O)(=O)Nc1cccc2c1N(C)CCC2 [Compound 55, 3-methyl-N-(1-methyl-1,2,3,4-tetra-hydroquin-olin-8-yl)-pyridine-2-sulfonamide]	500 to 5000	500 to 5000
Cc1cccnc1S(=O)(=O)Nc1c(N2CCOCC2)ccc2cccnc12 [Compound 18, 3-methyl-N-(7-morpho-linoquinolin-8-yl)pyridine-2-sulfonamide]	200 to 500	200 to 500
O=S(=O)(Nc1cccc2cccnc12)c1cccc(Cl)n1 [Compound 221, 6-chloro-N-(quinolin-8-yl)pyridine-2-sulfonamide]	500 to 5000	< 200
Cc1ncc(S(=O)(=O)Nc2cccc3cccnc23)cc1Cl [Compound 180, 5-chloro-6-methyl-N-(quinolin-8-yl)pyridine-3-sulfonamide]	500 to 5000	500 to 5000
Cc1cccnc1S(=O)(=O)Nc1cccc2ccc(C3CC3)nc12 [Compound 26, N-(2-cyclo-propylquin-olin-8-yl)-3-methylpyr-idine-2-sulfonamide]	500 to 5000	500 to 5000
O=S(=O)(Nc1cccc2cccnc12)c1ccc(Cl)nc1C(F)(F)F [Compound 176, 6-chloro-N-(quinolin-8-yl)-2-(trifluoromethyl) pyridine-3-sulfonamide]	500 to 5000	200 to 500
Cc1ccc(S(=O)(=O)Nc2cccc3cccnc23)nc1 [Compound 248, 5-methyl-N-(quinolin-8-yl)pyridine-2-sulfonamide]	200 to 500	500 to 5000
O=S(=O)(Nc1cccc2cccnc12)c1nccn1C1(C(F)(F)F)CC1 [Compound 168, N-(quinolin-8-yl)-1-(1-(trifluoromethyl)cyclopropyl)-1H-imidazole-2-sulfonamide]	200 to 500	< 200
CCn1cc(C)nc1S(=O)(=O)Nc1cccc2cccnc12 [Compound 191, 1-ethyl-4-methyl-N-(quinolin-8-yl)-1H-imidazole-2-sulfonamide]	200 to 500	< 200

Compound	IC50 (Dirofilaria immitis) [nM]	IC50 [1] [nM]
Cc1cc(NS(=O)(=O)c2nccn2C(C)C)c2ncccc2c1 [Compound 35]	200 to 500	200 to 500
Cc1cnc(C)c(S(=O)(=O)Nc2c(Cl)ccc3cccnc23)n1 [Compound 53, N-(7-chloro-quinolin-8-yl)-3,6-dimethyl-pyrazine-2-sulfonamide]	500 to 5000	500 to 5000
Cc1cc(S(=O)(=O)Nc2cccc3cccnc23)ccn1 [Compound 154, 2-methyl-N-(quinolin-8-yl)pyridine-4-sulfonamide]	500 to 5000	200 to 500
CCn1ccnc1S(=O)(=O)Nc1cc(F)cc2cccnc12 [Compound 107, 1-ethyl-N-(6-fluoroquinolin-8-yl)-1H-imidazole-2-sulfonamide]	200 to 500	< 200
Cc1ccc(S(=O)(=O)Nc2ccc(C)c3cccnc23)nc1 [Compound 58, 5-methyl-N-(5-methyl-quinolin-8-yl)pyridine-2-sulfonamide]	500 to 5000	200 to 500
CCn1ccnc1S(=O)(=O)Nc1cccc2cc(F)cnc12 [Compound 109, 1-ethyl-N-(3-fluoroquinolin-8-yl)-1H-imidazole-2-sulfonamide]	200 to 500	< 200
CN(C)c1cccnc1S(=O)(=O)Nc1cccc2c1N(C1CC1)CCC2 [Compound 42, N-(1-cyclo-propyl-1,2,3,4-tetra-hydroquin-olin-8-yl)-3-(dimethyl-amino)pyr-idine-2-sulfonamide]	500 to 5000	500 to 5000
Nc1ncccc1S(=O)(=O)Nc1cccc2cccnc12 [Compound 151, 2-amino-N-(quinolin-8-yl)pyridine-3-sulfonamide]	500 to 5000	500 to 5000
O=S(=O)(Nc1cccc2cccnc12)c1nccc2ccccc12 [Compound 225, N-(quinolin-8-yl)isoquinoline-1-sulfonamide]	500 to 5000	< 200
O=S(=O)(Nc1cccc2cccnc12)c1cc(Cl)ccn1 [Compound 220, 4-chloro-N-(quinolin-8-yl)pyridine-2-sulfonamide]	< 200	< 200
Cc1cccnc1S(=O)(=O)Nc1cccc2cc(N3CCOCC3)cnc12 [Compound 21, 3-methyl-N-(3-morpho-linoquinolin-8-yl)pyridine-2-sulfonamide]	500 to 5000	< 200
CCn1ccnc1S(=O)(=O)Nc1cccc2cc(Cl)cnc12 [Compound 116, N-(3-chloro-quinolin-8-yl)-1-ethyl-1H-imidazole-2-sulfonamide]	200 to 500	200 to 500
CC(C)(C)c1ccc(S(=O)(=O)Nc2cccc3cccnc23)cn1 [Compound 159, 6-tert-butyl-N-(quinolin-8-yl)pyridine-3-sulfonamide]	200 to 500	< 200
O=S(=O)(Nc1cccc2cccnc12)c1ccnc(C(F)(F)F)c1 [Compound 158, N-(quinolin-8-yl)-2-(trifluoromethyl) pyridine-4-sulfonamide]	500 to 5000	200 to 500
CN(C)c1cccnc1S(=O)(=O)Nc1cccc2cccnc12 [Compound 208, 3-(dimethylamino)-N-(quinolin-8-yl)pyridine-2-sulfonamide]	500 to 5000	< 200
Cc1cn(C)c(S(=O)(=O)Nc2cccc3cccnc23)n1 [Compound 231, 1,4-dimethyl-N-(quinolin-8-yl)-1H-imidazole-2-sulfonamide]	< 200	500 to 5000
O=S(=O)(Nc1cccc2cccnc12)c1cc(F)ccn1 [Compound 160, 4-fluoro-N-(quinolin-8-yl)pyridine-2-sulfonamide]	500 to 5000	< 200
Cc1ccc(S(=O)(=O)Nc2cccc3cc(F)cnc23)nc1 [Compound 87, N-(3-fluoro-quinolin-8-yl)-5-methyl-pyridine-2-sulfonamide]	200 to 500	< 200
O=S(=O)(Nc1c(Cl)cc(F)c2cccnc12)c1ncccc1C1CC1 [Compound 140, N-(7-chloro-5-fluoroquinolin-8-yl)-3-cyclo-propylpyridine-2-sulfonamide]	500 to 5000	
Cc1ccnc2c(NS(=O)(=O)c3ccc(C(F)(F)F)nc3)cccc12 [Compound 8, N-(4-methyl-quinolin-8-yl)-6-(trifluoro-methyl)pyr-idine-3-sulfon-amide]	200 to 500	
O=S(=O)(Nc1ccc(Oc2cccc(C(F)(F)F)c2)c2cccnc12)c1nccn1CC(F)(F)F [Compound 292, 1-(2,2,2-trifluoroethyl)-N-(5-(3-(trifluoromethyl)phenoxy)quinolin-8-yl)-1H-imidazole-2-sulfonamide]	< 200	
Cc1cc(C(F)(F)F)ncc1S(=O)(=O)Nc1cccc2cccnc12 [Compound 166, 4-methyl-N-(quinolin-8-yl)-6-(trifluoromethyl) pyridine-3-sulfonamide]	500 to 5000	
CCn1ccnc1S(=O)(=O)Nc1cccc2c(C(C)=O)ccnc12 [Compound 288, N-(4-acetylquinolin-8-yl)-1-ethyl-1H-imidazole-2-sulfonamide]	200 to 500	

Reference: patent US20240148744A1 (Celgene Corporation, priority 2021, published 2024)
